SMILES | logP
Cc1ccc(C(=O)N(C)NC(=S)Nc2ccccc2)cc1 | 2.88
CN(NC(=S)Nc1ccccc1)C(=O)c1ccc([N+](=O)[O-])cc1 | 2.69
O=C(c1ccc([N+](=O)[O-])cc1)N(NC(=S)Nc1ccccc1)c1ccccc1 | 3.91
CN(N)C(=O)c1ccc([N+](=O)[O-])cc1 | 0.99
NN(C(=O)c1ccccc1)c1ccccc1 | 2.44
NN(C(=O)c1ccc([N+](=O)[O-])cc1)c1ccccc1 | 2.62
CN(N)C(=O)c1ccccc1 | 0.96
COc1ccc(C(=O)N(C)N)cc1 | 1.23
Cc1ccc(C(=O)N(NC(=S)Nc2ccccc2)c2ccccc2)cc1 | 4.12
Cc1ccc(C(=O)N(C)N)cc1 | 1.57

Second part, the molecule after the results:

logP | SMILES
2.88 | CC=NN(C(=O)c1ccccc1)c1ccccc1
2.94 | COc1ccc(C(=O)N(N)c2ccccc2)cc1
3.14 | C/C=N/N(C(=O)c1ccc([N+](=O)[O-])cc1)c1ccccc1
2.8 | COc1ccc(C(=O)N(C)NC(=S)Nc2ccccc2)cc1
3.1 | Cc1ccc(C(=O)N(N)c2ccccc2)cc1
3.27 | CC=NN(C(=O)c1ccc(OC)cc1)c1ccccc1
3.39 | C/C=N/N(C(=O)c1ccc(C)cc1)c1ccccc1

— the SangsterLogP compilation
